Assay results from patent publication US6518243B1, “Desleucyl glycopeptide antibiotics and methods of making same” (Trustees of Princeton University, priority 1999, dated 2003).

Columns and labels:
[1] = system: S. epidermidis (ATCC 12228); experiment: Zone of inhibition screen, 96 well agar array format; assay type: cell-based; design: scale not given here; conditions: zone of inhibition relative to 1 mg/ml stock solution of p-chlorobiphenylvancomycin
Procedure, shortened: (§1)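 Each compound was tested for antibacterial activity against a shared bacterial panel, with screening carried out on agar in a 96-well array.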

[2] = system: E. faecalis (CL 4877); experiment: as above; assay type: cell-based; design: scale not given here; conditions: zone of inhibition relative to 1 mg/ml stock solution of p-chlorobiphenylvancomycin
Procedure, shortened: as §1

[3] = system: E. faceium (ATCC 49624); experiment: as above; assay type: cell-based, E. faecium; conditions: zone of inhibition relative to 1 mg/ml stock solution of p-chlorobiphenylvancomycin;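 also: score 3 means fourfold and score 4 sixteenfold the reference zone size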
Procedure, shortened: as §1

[4] = system: E. faecalis (ATCC 292121); experiment: as above; assay type: cell-based; conditions: zone of inhibition relative to 1 mg/ml stock solution of p-chlorobiphenylvancomycin
Experimental: The antibacterial activity of each of the compounds against the bacterial strains E. faceium (ATCC 49624), S. epidermidis (ATCC 12228), S. aureus (ATCC 29213), E. faecalis (CL 4877) and E. faecalis (ATCC 292121) was tested. Each of the compounds was screened in a 96 will agar array format.

[5] = system: E. faecium ATCC 49624; experiment: MIC determination in BHI media, OD600; assay type: cell-based; conditions: BHI + 0.1% casamino acids, 18 hours at 37° C., ≧90% OD600 inhibition
Procedure, shortened: (§2)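 Log-phase bacteria were diluted to about 5×10^5 CFU/ml and exposed to test compounds serially diluted in DMSO. Following 18 hours at 37° C, growth was read by plate absorbance to assign the MIC.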

[6] = system: E. Faecalis CL 4877; experiment: MIC determination in BHI media, OD600; assay type: cell-based; conditions: BHI + 0.1% casamino acids, 18 hours at 37° C., ≧90% OD600 inhibition
Procedure, shortened: as §2

[7] = system: E. faecium CL 4931; experiment: MIC determination in BHI media, OD600; assay type: cell-based; conditions: BHI + 0.1% casamino acids, 18 hours at 37° C., ≧90% OD600 inhibition
Procedure, shortened: as §2

[8] = system: S aureus ATCC 29213; experiment: MIC determination in BHI media, OD600; assay type: cell-based; conditions: BHI + 0.1% casamino acids, 18 hours at 37° C., ≧90% OD600 inhibition
Procedure, shortened: as §2

[9] = system: S. Aureus ATCC 33591; experiment: MIC determination in BHI media, OD600; assay type: cell-based; conditions: BHI + 0.1% casamino acids, 18 hours at 37° C., ≧90% OD600 inhibition
Procedure, shortened: as §2

[10] = system: S. aureus (ATCC 29213); experiment: Zone of inhibition screen, 96 well agar array format; assay type: cell-based; design: scale not given here; conditions: zone of inhibition relative to 1 mg/ml stock solution of p-chlorobiphenylvancomycin
Procedure, shortened: as §1

[11] = system: E. faecalis ATCC 29212; experiment: MIC determination in BHI media, OD600; assay type: cell-based; conditions: BHI + 0.1% casamino acids, 18 hours at 37° C., ≧90% OD600 inhibition
Procedure, shortened: as §2
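For zone score, E. faecalis ATCC 29212 in this document: score 3 means fourfold and score 4 sixteenfold the reference zone size.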

Structure (SMILES)	MIC E. faecium ATCC 49624 [5]	MIC E. faecalis CL 4877 [6]	MIC E. faecium CL 4931 [7]	MIC S. aureus ATCC 29213 [8]	MIC S. aureus ATCC 33591 [9]	MIC E. faecalis ATCC 29212 [11]	zone score, S. epidermidis ATCC 12228 [1]	zone score, E. faecalis CL 4877 [2]	zone score, E. faecium ATCC 49624 [3]	zone score, E. faecalis ATCC 29212 [4]	zone score, S. aureus ATCC 29213 [10]
CC1OC(OC2C(Oc3c4cc5cc3Oc3ccc(cc3Cl)C(O)C3NC(=O)C(NC(=O)C5NC(=O)C(CC(N)=O)NC(=O)C(NC(=O)C(N)CCC(N)=O)C(O)c5ccc(c(Cl)c5)O4)c4ccc(O)c(c4)-c4c(O)cc(O)cc4C(C(=O)O)NC3=O)OC(CO)C(O)C2O)CC(C)(NCc2ccc(-c3ccc(Cl)cc3)cc2)C1O (stereo not shown) [Compound 57]									2	2	
CNCC(=O)N[C@H]1C(=O)N[C@@H](CC(N)=O)C(=O)N[C@H]2C(=O)N[C@H]3C(=O)N[C@H](C(=O)N[C@@H](C(=O)O)c4cc(O)cc(O)c4-c4cc3ccc4O)[C@H](O)c3ccc(c(Cl)c3)Oc3cc2cc(c3O[C@@H]2O[C@H](CO)[C@@H](O)[C@H](O)[C@H]2O[C@@H]2C[C@@](C)(NCc3ccc(-c4ccc(Cl)cc4)cc3)[C@@H](O)[C@@H](C)O2)Oc2ccc(cc2Cl)[C@H]1O [Compound 8]								2		2	
C[C@H]1O[C@H](O[C@H]2[C@H](Oc3c4cc5cc3Oc3ccc(cc3Cl)[C@@H](O)[C@@H](NC(=O)CN)C(=O)N[C@@H](CC(N)=O)C(=O)N[C@H]5C(=O)N[C@H]3C(=O)N[C@H](C(=O)N[C@@H](C(=O)O)c5cc(O)cc(O)c5-c5cc3ccc5O)[C@H](O)c3ccc(c(Cl)c3)O4)O[C@H](CO)[C@@H](O)[C@@H]2O)C[C@@](C)(NCc2ccc(-c3ccc(Cl)cc3)cc2)[C@H]1O [Compound 28]								2	2	2	

The next lines start with results.

MIC E. faecium ATCC 49624 [5]	MIC E. faecalis CL 4877 [6]	MIC E. faecium CL 4931 [7]	MIC S. aureus ATCC 29213 [8]	MIC S. aureus ATCC 33591 [9]	MIC E. faecalis ATCC 29212 [11]	Structure (SMILES)	zone score, S. epidermidis ATCC 12228 [1]	zone score, E. faecalis CL 4877 [2]	zone score, E. faecium ATCC 49624 [3]	zone score, E. faecalis ATCC 29212 [4]	zone score, S. aureus ATCC 29213 [10]
0.39 µg/mL	25 µg/mL	25 µg/mL				CC1OC(OC2C(Oc3c4cc5cc3Oc3ccc(cc3Cl)C(O)C3NC(=O)C(NC(=O)C5NC(=O)C(CC(N)=O)NC(=O)C(NC(=O)C(N)CCCCNC(=O)CCCCC5SCC6NC(=O)NC65)C(O)c5ccc(c(Cl)c5)O4)c4ccc(O)c(c4)-c4c(O)cc(O)cc4C(C(=O)O)NC3=O)OC(CO)C(O)C2O)CC(C)(NCc2ccc(-c3ccc(Cl)cc3)cc2)C1O (stereo not shown) [Compound 75]	2	2	2	2	
0.39 µg/mL		25 µg/mL	0.78 µg/mL	0.78 µg/mL		CC(O)C(N)C(=O)NC1C(=O)NC(CC(N)=O)C(=O)NC2C(=O)NC3C(=O)NC(C(=O)NC(C(=O)O)c4cc(O)cc(O)c4-c4cc3ccc4O)C(O)c3ccc(c(Cl)c3)Oc3cc2cc(c3OC2OC(CO)C(O)C(O)C2OC2CC(C)(NCc3ccc(-c4ccc(Cl)cc4)cc3)C(O)C(C)O2)Oc2ccc(cc2Cl)C1O (stereo not shown) [Compound 64]		2		2	
0.25 µg/mL			0.25 µg/mL	0.25 µg/mL	0.39 µg/mL	C[C@H]1O[C@H](O[C@H]2[C@H](Oc3c4cc5cc3Oc3ccc(cc3Cl)[C@@H](O)[C@@H](NC(=O)[C@H](N)Cc3c[nH]c6ccccc36)C(=O)N[C@@H](CC(N)=O)C(=O)N[C@H]5C(=O)N[C@H]3C(=O)N[C@H](C(=O)N[C@@H](C(=O)O)c5cc(O)cc(O)c5-c5cc3ccc5O)[C@H](O)c3ccc(c(Cl)c3)O4)O[C@H](CO)[C@@H](O)[C@@H]2O)C[C@@](C)(NCc2ccc(-c3ccc(Cl)cc3)cc2)[C@H]1O [Compound 25]		2	2	2	2
